# Assay results reported in patent publication US20230125667A1, “NOVEL TDZD ANALOGS AS AGENTS THAT DELAY, PREVENT, OR REVERSE AGE-ASSOCIATED DISEASES AND AS ANTI-CANCER AND ANTILEUKEMIC AGENTS” (United States Government as represented by the Department …, priority 2020, published 2023).
# Tests used:
# 786-0 = assay: NCI-60 growth inhibition: 786-0 (Renal Cancer); format: cell-based, human
# COLO 205 = assay: NCI-60 growth inhibition: COLO 205 (Colon Cancer); format: cell-based, human
# MDA-MB-435 = assay: NCI-60 growth inhibition: MDA-MB-435 (Melanoma); format: cell-based, human
# UACC-257 = assay: NCI-60 growth inhibition: UACC-257 (Melanoma); format: cell-based, human
# DU-145 = assay: NCI-60 growth inhibition: DU-145 (Prostate Cancer); format: cell-based, human
# HCT-15 = assay: NCI-60 growth inhibition: HCT-15 (Colon Cancer); format: cell-based, human
# RXF 393 = assay: NCI-60 growth inhibition: RXF 393 (Renal Cancer); format: cell-based, human
# CCRF-CEM = assay: NCI-60 growth inhibition: CCRF-CEM (Leukemia); format: cell-based, human
# HS 578T = assay: NCI-60 growth inhibition: HS 578T (Breast Cancer); format: cell-based, human
# BT-549 = assay: NCI-60 growth inhibition: BT-549 (Breast Cancer); format: cell-based, human
# SR = assay: NCI-60 growth inhibition: SR (Leukemia); format: cell-based, human
# UO-31 = assay: NCI-60 growth inhibition: UO-31 (Renal Cancer); format: cell-based, human
# MDA-MB-468 = assay: NCI-60 growth inhibition: MDA-MB-468 (Breast Cancer); format: cell-based, human; conditions: MDA-MB-468 (Breast Cancer); read-out: GI50
# SN12C = assay: NCI-60 growth inhibition: SN12C (Renal Cancer); format: cell-based, human
# [1] = test system: MV4-11 cell line (myelomonocytic leukemia); conditions: MV4-11 cells, 24 h, MMB-TDZD analogs (Table 2)
# RPMI-8226 = assay: NCI-60 growth inhibition: RPMI-8226 (Leukemia); format: cell-based, human
# SNB-75 = assay: NCI-60 growth inhibition: SNB-75 (CNS Cancer); format: cell-based, human
# SW-620 = assay: NCI-60 growth inhibition: SW-620 (Colon Cancer); format: cell-based, human
# K-562 = assay: NCI-60 growth inhibition: K-562 (Leukemia); format: cell-based, human
# OVCAR-5 = assay: NCI-60 growth inhibition: OVCAR-5 (Ovarian Cancer); format: cell-based, human
# NCI-H522 = assay: NCI-60 growth inhibition: NCI-H522 (Non-Small-Cell Lung Cancer); conditions: NCI-H522 (Non-Small-Cell Lung Cancer)
# MDA-MB-231/ATCC = assay: NCI-60 growth inhibition: MDA-MB-231/ATCC (Breast Cancer); format: cell-based, human
# U251 = assay: NCI-60 growth inhibition: U251 (CNS Cancer); format: cell-based, human
# TK-10 = assay: NCI-60 growth inhibition: TK-10 (Renal Cancer); format: cell-based, human
# NCI-H460 = assay: NCI-60 growth inhibition: NCI-H460 (Non-Small-Cell Lung Cancer); format: cell-based, human
# OVCAR-8 = assay: NCI-60 growth inhibition: OVCAR-8 (Ovarian Cancer); format: cell-based, human
# ACHN = assay: NCI-60 growth inhibition: ACHN (Renal Cancer); format: cell-based, human
# NCI-H23 = assay: NCI-60 growth inhibition: NCI-H23 (Non-Small-Cell Lung Cancer); format: cell-based, human
# A498 = assay: NCI-60 growth inhibition: A498 (Renal Cancer); format: cell-based, human
# MOLT-4 = assay: NCI-60 growth inhibition: MOLT-4 (Leukemia); format: cell-based, human
# SF-268 = assay: NCI-60 growth inhibition: SF-268 (CNS Cancer); format: cell-based, human
# SK-MEL-5 = assay: NCI-60 growth inhibition: SK-MEL-5 (Melanoma); format: cell-based, human
# OVCAR-4 = assay: NCI-60 growth inhibition: OVCAR-4 (Ovarian Cancer); format: cell-based, human
# EKVX = assay: NCI-60 growth inhibition: EKVX (Non-Small-Cell Lung Cancer); format: cell-based, human
# M14 = assay: NCI-60 growth inhibition: M14 (Melanoma); format: cell-based, human
# HOP-92 = assay: NCI-60 growth inhibition: HOP-92 (Non-Small-Cell Lung Cancer); format: cell-based, human
# UACC-62 = assay: NCI-60 growth inhibition: UACC-62 (Melanoma); format: cell-based, human
# SNB-19 = assay: NCI-60 growth inhibition: SNB-19 (CNS Cancer); format: cell-based, human
# HL-60(TB) = assay: NCI-60 growth inhibition: HL-60(TB) (Leukemia); format: cell-based, human; conditions: HL-60(TB) (Leukemia); read-out: GI50
# SK-MEL-2 = assay: NCI-60 growth inhibition: SK-MEL-2 (Melanoma); format: cell-based, human
# HT29 = assay: NCI-60 growth inhibition: HT29 (Colon Cancer); format: cell-based, human
# LOX IMVI = assay: NCI-60 growth inhibition: LOX IMVI (Melanoma); format: cell-based, human
# SK-MEL-28 = assay: NCI-60 growth inhibition: SK-MEL-28 (Melanoma); format: cell-based, human
# MCF7 = assay: NCI-60 growth inhibition: MCF7 (Breast Cancer); format: cell-based, human
# MALME-3M = assay: NCI-60 growth inhibition: MALME-3M (Melanoma); format: cell-based, human
# SF-539 = assay: NCI-60 growth inhibition: SF-539 (CNS Cancer); format: cell-based, human
# T-47D = assay: NCI-60 growth inhibition: T-47D (Breast Cancer); format: cell-based, human
# PC-3 = assay: NCI-60 growth inhibition: PC-3 (Prostate Cancer); format: cell-based, human
# IGROV1 = assay: NCI-60 growth inhibition: IGROV1 (Ovarian Cancer); format: cell-based, human
# OVCAR-3 = assay: NCI-60 growth inhibition: OVCAR-3 (Ovarian Cancer); format: cell-based, human
# HCT-116 = assay: NCI-60 growth inhibition: HCT-116 (Colon Cancer); conditions: HCT-116 (Colon Cancer)
# CAKI-1 = assay: NCI-60 growth inhibition: CAKI-1 (Renal Cancer); format: cell-based, human
structure (smiles),measurement,setting,value
C=C1C(=O)O[C@H]2[C@H]1CC/C(COC(=O)NCc1ccc(Cn3c(=O)sn(CCCl)c3=O)cc1)=C\CC[C@@]1(C)O[C@@H]21 [BSK-140],GI50,786-0,1.79 µM
same,GI50,COLO 205,1.84 µM
same,GI50,MDA-MB-435,1.74 µM
same,GI50,UACC-257,1.85 µM
same,GI50,DU-145,1.72 µM
same,GI50,HCT-15,1.85 µM
same,GI50,RXF 393,1.18 µM
same,GI50,CCRF-CEM,1.73 µM
same,GI50,HS 578T,12.1 µM
same,GI50,BT-549,1.45 µM
same,GI50,SR,1.48 µM
same,GI50,UO-31,1.65 µM
same,GI50,MDA-MB-468,1.78 µM
same,GI50,SN12C,2.01 µM
same,"LD50, 7AAD (μM) 24 h",[1]; 7AAD,4.42 µM
same,"LD50, Alamar blue (μM) 24 h",[1]; Alamar blue,1.50 µM
same,"LD50, YOPRO (μM) 24 h",[1]; YOPRO,2.88 µM
same,GI50,RPMI-8226,2.37 µM
same,GI50,SNB-75,7.65 µM
same,GI50,SW-620,1.17 µM
same,GI50,K-562,2.07 µM
same,GI50,OVCAR-5,1.97 µM
same,GI50,NCI-H522,1.38 µM
same,GI50,MDA-MB-231/ATCC,1.89 µM
same,GI50,U251,6.79 µM
same,GI50,TK-10,1.77 µM
same,GI50,NCI-H460,5.1 µM
same,GI50,OVCAR-8,2.04 µM
same,GI50,ACHN,1.54 µM
same,GI50,NCI-H23,2.18 µM
same,GI50,A498,11.5 µM
same,GI50,MOLT-4,1.85 µM
same,GI50,SF-268,3.73 µM
same,GI50,SK-MEL-5,1.7 µM
same,GI50,OVCAR-4,1.92 µM
same,GI50,EKVX,1.99 µM
same,GI50,M14,1.82 µM
same,GI50,HOP-92,1.5 µM
same,GI50,UACC-62,1.86 µM
same,GI50,SNB-19,11.9 µM
same,GI50,HL-60(TB),1.91 µM
same,GI50,SK-MEL-2,10.6 µM
same,GI50,HT29,2.16 µM
same,GI50,LOX IMVI,1.69 µM
same,GI50,SK-MEL-28,1.74 µM
same,GI50,MCF7,1.91 µM
same,GI50,MALME-3M,1.72 µM
same,GI50,SF-539,1.82 µM
same,GI50,T-47D,1.97 µM
same,GI50,PC-3,8.09 µM
same,GI50,IGROV1,2.5 µM
same,GI50,OVCAR-3,1.53 µM
same,GI50,HCT-116,1.62 µM
same,GI50,CAKI-1,1.76 µM
